In patent US20220016196A1, “Aloe Based Compositions Comprising Polysaccharides and Polyphenols for Regulation of Homeostasis of Immunity” (Unigen, Inc., priority 2020, published 2022):

Test system: LPS-induced septic mice
Assay: LPS induced sepsis model, survival/mortality rate
Format: in vivo, mouse
Details: for # of Death after LPS: cumulative; for Number of deceased animals post LPS: per interval
Procedure: CD-1 mice were purchased from a USDA approved vendor. Male CD-1 mice at 8 weeks old were purchased form Charles River Laboratories, Inc. (Wilmington, Mass.). Animals were acclimated upon arrival and used for the study at the age of 11 weeks. At the time of the study animals average weigh 33.6±2.4 grams. They were housed in a temperature-controlled room (71-72° F.) on a 12-hour light-dark cycle and provided with feed and water ad libitum.
This model used a survival/mortality rate of animals as the end point measurement (Wang et al., 1999). LPS, an exogenous assault trigger, is an integral component of the outer membrane of gram-negative bacteria and a major contributing factor in the initiation of a generalized inflammatory process that could lead to endotoxic shock. It is a state mediated principally by macrophages/monocytes attributed to excessive production of several early phase cytokines such as TNF, IL-1, IL-6 and gamma interferon as well as a late stage mediator HMGB1. Following median lethal dose of LPS (25 mg/kg) administration dissolved in Phosphate buffered saline (PBS; Lifeline, Lot #07641), animals develop endotoxemia and HMGB1 would be detected in the serum at 8 hours and reach to a peak and plateau levels from 16 to 32 hours after LPS. If untreated, mice would start to die within 24 hours. In the current study, we monitored the mice for 4 days after LPS injection. The survival/mortality rate compared LPS +Sodium butyrate (SB; Aldrich, St. Louis, Mo.; lot #MKCG7272), LPS+Vehicle (0.5% CMC; Spectrum, New Brunswick, N.J.; lot #1IJ0127) and LPS+UP360 (Aloe based composition comprising polysaccharides and polyphenols made in Example 9). The following groups were included in the study:
In this model, mice were pretreated with UP360 illustrated in the Example 9 for a week (7 days) before lethal dose intraperitoneal injection of LPS (E. coli, 055:B5; Sigma, St. Louis, Mo.; Lot #081275) at 25 mg/kg with a 10 mL/kg PBS volume. Animals were observed hourly. Given the fact that Sodium butyrate improved LPS-induced injury in mice through suppression of HMGB1 release, we chose this compound as a positive control for our study (Li et al., 2018).
Male CD-1 mice (n=13) were treated with Aloe, Poria, and Rosmarinic acid (RA) utilized for making UP360 in Example 9 at 150 mg/kg, 300 mg/kg and 50 mg/kg, respectively, for 7 days before LPS injection. On the 8th day, mice were injected with 25 mg/kg LPS dissolved in PBS at 10 mL/kg intraperitoneally. Mice in the UP360-treated group received a daily dose of UP360 at 500 mg/kg. All mice continued to receive the respective treatment daily for the duration of the study. Following median lethal dose of LPS (25 mg/kg) i.p. administration, animals are expected to develop sepsis within a few hours. If untreated, mice would start to die within 24 hours. Animals were observed hourly. In the current study, we monitored the mice for 6 days after LPS injection. The survival rate compared LPS+Sodium butyrate (SB), LPS+Vehicle (0.5% CMC), LPS+UP360, LPS+Aloe, LPS+Poria and LPS+Rosmarinic acid. Normal control animals received only PBS intraperitoneally and gavaged only with the carrier vehicle 0.5% CMC. Given the fact that Sodium butyrate (SB) improved LPS-induced injury in mice through suppression of HMGB1 release, we chose this compound as a positive control for our study (Li et al., 2018).
The survival rate and mortality rate of the contemplated Aloe-based compositions, including UP360, comprising and, in some embodiments, consisting of polysaccharides and polyphenols was compared with those dosages of individual extracts as they appear in the formulation to find out potential additive, antagonist or synergistic effects in combination using Colby's equation (Colby, 1967). For the blending of these plant extracts to have unexpected synergy, the observed inhibition needs to be greater than the calculated value.

[1] = n=13 study, doses as E61, 24 hr
[2] = n=13 study, doses as E61, 36 hr
[3] = n=13 study, doses as E61, 48 hr
[4] = n=13 study, doses as E61, 60 hr
[5] = n=13 study, doses as E61, 72 hr
[6] = n=13 study, doses as E61, 96 hr
[7] = n=13 study, doses as E61, 120 hr
[8] = n=13 study, doses as E61, 144 hr

For `CCCC(=O)[O-].[Na+]` [Sodium Butyrate], the “# of Death after LPS” value (CD-1 mice n=8, LPS 25 mg/kg i.p., 500 mg/kg oral from 7 days before, 24 hr) was 2, the “Number of deceased animals post LPS” value (CD-1 mice n=13, LPS 25 mg/kg i.p., oral UP360/SB 500, Aloe 150, Poria 300, RA 50 mg/kg, 24 hpi) was 2 and the “MR (%)” value (mortality rate, n=13 study, doses as E49, end of study) was 69.2%. For the same molecule, the “# of Death after LPS, Total” value (n=8, LPS 25 mg/kg i.p., 500 mg/kg oral) was 4, the survival rate (n=8, LPS 25 mg/kg i.p., 500 mg/kg oral, 24 hours after LPS) was 75% and the survival rate (n=8, LPS 25 mg/kg i.p., 500 mg/kg oral, 34 hours after LPS) was 62.5%. The survival rate (n=8, LPS 25 mg/kg i.p., 500 mg/kg oral, 48 hours after LPS) was “half of the animals were deceased”, the survival rate (n=8, LPS 25 mg/kg i.p., 500 mg/kg oral, 72 hours after LPS) was 50% and the “# of Death after LPS” value (n=8, LPS 25 mg/kg i.p., 500 mg/kg oral, 32 hr) was 3. For the same molecule, the “# of Death after LPS” value (n=8, LPS 25 mg/kg i.p., 500 mg/kg oral, 34 hr) was 3, the “# of Death after LPS” value (n=8, LPS 25 mg/kg i.p., 500 mg/kg oral, 48 hr) was 4 and the “# of Death after LPS” value (n=8, LPS 25 mg/kg i.p., 500 mg/kg oral, 58 hr) was 4. The “# of Death after LPS” value (n=8, LPS 25 mg/kg i.p., 500 mg/kg oral, 72 hr) was 4, the “# of Death after LPS” value (n=8, LPS 25 mg/kg i.p., 500 mg/kg oral, 82 hr) was 4 and the “Survival rate (%)” value (n=8, LPS 25 mg/kg i.p., 500 mg/kg oral, final (82 hours, same at 96 and 120 hours)) was 50%. For the same molecule, the “Survival rate (%)” value (n=13, LPS 25 mg/kg i.p., UP360/Sodium Butyrate 500, Aloe 150, Poria 300, RA 50 mg/kg, 0 hr) was 100%, the Survived (n=13 study, doses as E49, at 144 hpi) was 4 and the “Number of deceased animals post LPS” value (n=13 study, doses as E49, 36 hpi) was 4. The “Number of deceased animals post LPS” value (n=13 study, doses as E49, 48 hpi) was 1, the “Number of deceased animals post LPS” value (n=13 study, doses as E49, 60 hpi) was 1 and the “Number of deceased animals post LPS” value (n=13 study, doses as E49, 72 hpi) was 0. The “Number of deceased animals post LPS” value (n=13 study, doses as E49, 96 hpi) was 1, the “Number of deceased animals post LPS” value (n=13 study, doses as E49, 120 hpi) was 0 and the “Number of deceased animals post LPS” value (n=13 study, doses as E49, 144 hpi) was 0. The Deceased (n=13 study, doses as E49, total over 144 hpi) was 9, the “Mortality rate (%)” value (n=13 study, doses as E61, 0 hr) was 0.0% and the “Mortality rate (%)” value [1] was 15.4%. The “Survival rate (%)” value [1] was 84.6%, the “Mortality rate (%)” value [2] was 46.2% and the “Survival rate (%)” value [2] was 53.8%. The “Mortality rate (%)” value [3] was 53.8%, the “Survival rate (%)” value [3] was 46.2% and the “Mortality rate (%)” value [4] was 61.5%. The “Survival rate (%)” value [4] was 38.5%, the “Mortality rate (%)” value [5] was 61.5% and the “Survival rate (%)” value [5] was 38.5%. The “Mortality rate (%)” value [6] was 69.2%, the “Survival rate (%)” value [6] was 30.8% and the “Mortality rate (%)” value [7] was 69.2%. The “Survival rate (%)” value [7] was 30.8%, the “Mortality rate (%)” value [8] was 69.2% and the “Survival rate (%)” value [8] was 30.8%. For the same molecule, the “SR (%)” value (survival rate, n=13 study, doses as E49, end of study) was 30.8%.
